Reference: patent publication US11304988B2, “Inhibiting tumor cell migration by inhibition of kinesin light chain 1, variant 1 (KLC1C)” (Northwestern University, priority 2018, dated 2022)
“Also recorded” adds a separate entry of the source.

Key:
[1] = tested on: A375 human melanoma cells; assay: tumor cell TEM assay, A375 melanoma cells across EC (HUVEC) monolayers; format: cell-based; conditions: for melanoma cell transmigration across endothelial cell monolayers, prostaglandin receptor inhibitors: HUVEC pretreated 1 hour then washed, A375 cells, inhibitor used at 10× its IC50; for melanoma cell TEM in vitro (in words): human melanoma cells across human EC monolayer
Procedure: FIG. 7. Tat-KLC1c peptide blocks tumor cell TEM. A375 human melanoma cells were allowed to transmigrate for 2 hours across EC monolayers pre-incubated (then washed extensively) with Tat-KLC1c or Tat-Scr. The 50% block in TEM is representative of at least 6 independent experiments.
FIG. 10. Platelets modestly increase melanoma cell migration through an LBRC-dependent mechanism. The tumor cell TEM assay was carried out in the presence or absence of human platelets, which were added to the tumor cells at the time of peptide addition and immediately prior to addition to the endothelial cell monolayer. Transmigration proceeded for 2 hours.
FIG. 17. […] HUVEC monolayers were pretreated with 100 nM Tat peptides or the indicated doses of PF-04418948 (EP2 inhibitor) or AAT008 (EP4 antagonist) for 1 hour then washed exten-sively before adding A375 cells. Transmigration proceeded for 2 hours.
FIG. 18. Optimal concentrations of Tat-KLC1c peptide and EP4 antagonist are not additive. Transmigration assays as in FIG. 16 with 100 μM Tat-peptides, 100 nM AAT-008, or both. Mean±S.D. of 6 replicates for each condition. * p<0.0004 vs. Scr; NS vs each other.
(§1) Tumor cells that transmigrate using the LBRC do so without destroying the endothelial cell monolayer. […] The Tat-KLC1c peptide has no effect on the ability of tumor cells to move per se (FIG. 8), nor on tumor cell viability or growth (FIG. 9).

[2] = tested on: A375M melanoma cells; assay: A375M transendothelial migration assay; format: cell-based, human; conditions: for lowest concentration with significant effects on tumor cell transmigration / melanoma / tumor cell transmigration with free radical scavengers and anti-oxidants (in words): A375M; for melanoma / tumor cell transmigration with free radical scavengers and anti-oxidants (in words): indicated concentrations, vs. Scr; for inhibition of melanoma cell TEM compared with Tat-KLC1c peptide: at 10 mM, vs optimal concentration of Tat-KLC1c peptide
Procedure: (§2) FIG. 16. […] Data are mean±SD of 6 replicates. *p<0.005 vs. Scr.
FIG. 19. […] A375M transendothelial migration assays were carried out in the presence of Tat-peptides or the indicated concentrations of Trolox or N-acetylcysteine. Data are mean±SD of ≥3 replicates for each condition. *p<0.01 for all inhibitors vs. Scr.

[3] = tested on: A375 human melanoma cells; assay: Transwell filter migration of tumor cells toward serum-containing medium (A375); format: cell-based; conditions: 100 nM peptide, 12 hours, 8 μM pore size Transwell
Procedure: (§3) FIG. 8. […] 1×10^4 A375 human melanoma cells or 1×10^4 B16F10 melanoma cells were resuspended in serum-free medium and placed in the upper chamber of Transwell filters ([…]) and allowed to migrate in response to serum-containing medium in the bottom chamber in the presence of 100 nM Tat-Scr, Tat-KLC1c or no additives. The total number of tumor cells in the bottom well 12 hours later was enumerated. Data are mean±S.D. for four replicates of each sample.

[4] = tested on: Human umbilical vein endothelial cells; assay: in vitro transendothelial migration (TEM) of human monocytes across endothelial cell monolayers; format: cell-based; conditions: endothelial cells incubated 30 minutes with 0.01 μM or 0.1 μM peptide, washed, one hour with human monocytes; compared to untreated
Procedure: FIG. 3. Blocking Kinesin Light Chain 1c function via TAT-KLC1c peptide inhibits transmigration. Human umbilical vein endothelial cells. Endothelial cells were incubated for 30 minutes with either 0 μM (untreated), 0.01 μM, or 0.1 μM TAT-KLC1c peptide (or scrambled TAT-peptide) at 37° C., then washed prior to a one hour incubation with human monocytes. The cells were then washed, fixed, and the percentage of cells transmigrated (% TEM) was quantified. […] Data shown are mean±SEM for 3 experiments. * p<0.01 compared to untreated.
as §2, §1

[5] = tested on: B16F10 melanoma cells; assay: lung metastatic colony formation after tail vein injection of B16F10 cells; format: in vivo, mouse
Procedure: Age- and sex-matched C57Bl/6 mice were injected with Tat-Scr (Scr) or Tat-KLC1c (KLC1c) 1 hr before and 18 hr after injection of 10^6 B16F10 melanoma cells via tail vein. 14 days later lungs were inflated with formalin, and metastases counted. (A) Representative gross photos of lungs from mice that received Tat-Scr (top) and Tat-KLC1c (bottom). Arrows point to some of the metastases. (B) Graphical representation of results. Dots are values for individual mice. (TNTC)=too numerous to count. Lines show mean±S.D., p=0.00204 by ANOVA not including the TNTC data.
C57Bl/6 mice received KLC1c or scrambled peptide 1 hour prior to receiving carboxyfluorescein (CFSE)-labeled B16F10 melanoma cells via tail vein. They were sacrificed six hours later so that data would reflect the effects on extravasation per se rather than survival or growth (Ref. B10; herein incorporated by reference in its entirety). Immediately prior to sacrifice a fluorescent anti-PECAM antibody was injected i.v. to stain vasculature. […] In a separate experiment, age- and sex-matched C57Bl/6 mice syngeneic to the tumor were randomized to receive Tat-Scr or Tat-KLC1c parenterally at a concentration calculated to achieve 0.1 μM in vivo 1 h. before and 18 h. after receiving 1×10^6 syngeneic B16F10 melanoma cells in 100 μl via tail vein. […]

[6] = tested on: B16F10 melanoma cells; assay: growth of B16F10 melanoma cells in culture over two weeks; format: cell-based, mouse; conditions: 100 nM peptide, two-week period
Procedure: FIG. 9. […] Melanoma cells were plated at a density of 1×10^5/ml on 80 mm plates with 100 nM Tat-Scr or Tat-KLC1c. Cells were trypsinized and counted on the indicated days, diluted and 4×10^6 viable cells re-plated in fresh peptide. Total cells in the culture are shown.

[7] = tested on: PMN; assay: croton oil acute dermatitis of ear skin, PMN transmigration; format: in vivo, mouse; conditions: i.v. to achieve 0.1 μM in blood, one hour before croton oil; ear skin examined six hours later
Procedure: FIG. 5. TAT-KLC1c blocks TEM in vivo. Mice received TAT-Scr or TAT-KLC1c i.v. at a concentration to achieve 0.1 μM in blood. One hour later, croton oil was applied to mouse ear skin to induce acute dermatitis. Six hours later mice were sacrificed and ear skin examined in whole mount by confocal microscopy. Representative images are shown. In mice receiving Tat-Scr, a mean of 70% of PMN exited the vessels, while in mice receiving Tat-KLC1c, transmigration was decreased to 12%.

[8] = tested on: neutrophils; assay: intravital confocal microscopy of neutrophil transmigration in IL-1β-inflamed cremaster muscle; format: in vivo; conditions: anesthetized mouse; for neutrophil extravasation (cumulative transmigration): postcapillary venules, response to IL-1β, after injection of peptide
Excerpt: FIG. 4. TAT-KLC1c blocks TEM in vivo. In the inflamed cremaster muscle of an anesthetized mouse, fluorescent neutrophils were observed by intravital spinning disc confocal microscopy to transmigrate steadily from postcapillary venules in response to IL-1β.

[9] = tested on: B16F10 melanoma cells; assay: Transwell filter migration of tumor cells toward serum-containing medium (B16F10); format: cell-based, mouse; conditions: 100 nM peptide, 12 hours, 8 μM pore size Transwell
Procedure: as §3

[10] = tested on: B16F10 melanoma cells; assay: melanoma cell extravasation in lung in vivo after tail vein injection; parameters: species or system mouse; conditions: for visualized tumor cells that had transmigrated: C57Bl/6 mice, peptide 1 hour prior to CFSE-labeled B16F10 via tail vein, sacrificed six hours later
Procedure: FIG. 11. Visualizing melanoma cell extravasation in vivo. Single XY plane from confocal image of CFSE-labeled B16F10 cells in Tat-Scr treated mouse lung 6 hr. after i.v. injection of 10^6 tumor cells. Two tumor cells (arrows) have migrated out of vasculature while another one (arrowhead) remains inside the vessel.
FIG. 12. […] Quantification of block by Tat-KLC1c (Mean±S.D) * p<0.01.
C57Bl/6 mice received KLC1c or scrambled peptide 1 hour prior to receiving carboxyfluorescein (CFSE)-labeled B16F10 melanoma cells via tail vein. They were sacrificed six hours later so that data would reflect the effects on extravasation per se rather than survival or growth (Ref. B10; herein incorporated by reference in its entirety). Immediately prior to sacrifice a fluorescent anti-PECAM antibody was injected i.v. to stain vasculature. Lungs were inflated with 4% paraformaldehyde (PFA) and fixed overnight in PFA, then cryopreserved in sucrose. 100 μm thick frozen sections were cut and examined by spinning disc confocal microscopy with images taken every 1 μm of specimen depth. 30% of visualized tumor cells had transmigrated in the mice receiving scrambled peptide, whereas only ˜9% had transmigrated in mice receiving Tat-KLC1c peptide—a 70% reduction (FIGS. 11,12). […] In a separate experiment, age- and sex-matched C57Bl/6 mice syngeneic to the tumor were randomized to receive Tat-Scr or Tat-KLC1c parenterally at a concentration calculated to achieve 0.1 μM in vivo 1 h. before and 18 h. after receiving 1×10^6 syngeneic B16F10 melanoma cells in 100 μl via tail vein. Lung metastases were enumerated 14 days later under a dissecting microscope. The Tat-KLC1c group had over 90% fewer (FIG. 13, p=0.00204). […] Even though Tat-KLC1c blocks about ⅓ (in vitro) to ⅔ (in vivo) of melanoma extravasation events, the number of metastatic colonies that grow out are disproportionately lower.

Molecule	lowest concentration with significant effects on tumor cell transmigration [2] [µM]	melanoma / tumor cell transmigration with free radical scavengers and anti-oxidants (in words) [2]	inhibition of melanoma cell TEM compared with Tat-KLC1c peptide [2]	tumor cell migration, total number of tumor cells in the bottom well [3]	percentage of cells transmigrated (% TEM) [4]	mean PMN exited the vessels (transmigration) [7] [%]	neutrophil extravasation (cumulative transmigration) [8]	melanoma cell TEM in vitro (in words) [1]	tumor cell migration, total number of tumor cells in the bottom well [9]	visualized tumor cells that had transmigrated ([10]; lung) [%]	further results
C[C@H](NC(=O)c1cc(Cl)cnc1Oc1cccc(F)c1)c1ccc(C(=O)O)cc1 [AAT-008, reference compound]											melanoma cell transmigration across endothelial cell monolayers, prostaglandin receptor inhibitors ([1]; 2 hours): block melanoma cell transmigration; melanoma cell transmigration across endothelial cell monolayers, prostaglandin receptor inhibitors ([1]; 2 hours, listed as AAT008): blocks melanoma transmigration; block to melanoma cell transmigration compared with Tat-KLC1c ([1]; vs Tat-KLC1c at its optimal concentration): as effective as using Tat-KLC1c at its optimal concentration
CC(=O)N[C@@H](CS)C(=O)O [N-acetylcysteine]	100	reduces tumor cell transmigration in a dose-dependent manner; also recorded: inhibit melanoma transmigration	as effectively as the optimal concentration of Tat-KLC1c peptide								
Cc1c(C)c2c(c(C)c1O)CCC(C)(C(=O)O)O2 (stereo not shown) [Trolox, 6-hydroxy-2,5,7,8-tetramethylchroman-2-carboxylic acid]	100	reduces tumor cell transmigration in a dose-dependent manner; also recorded: inhibit melanoma transmigration	as effectively as the optimal concentration of Tat-KLC1c peptide								
Tat-KLC1c: 11-amino acid basic region from HIV Tat protein, glycine tripeptide linker, C-terminal decapeptide of KLC1c (MRKMKLGLVN); SEQ ID NO: 8 (YGRKKRRQRRRGGGMRKMKLGLVN)				no direct effect	significantly decreased TEM	12	markedly inhibited	significantly blocks	no direct effect	~9	fewer lung metastases than Tat-Scr group ([5]; 0.1 μM in vivo, 1 h before and 18 h after 1×10^6 B16F10 cells via tail vein, 14 days later): over 90%; metastatic colony formation (in words) ([5]; C57Bl/6 mice, B16F10, 14 days): significantly blocked the establishment of metastatic colonies; also recorded: prevents metastatic colony formation; tumor cell viability or growth (total cells in the culture) [6]: no effect; also recorded: does not affect growth; time after injection until cumulative transmigration began to plateau ([8]; IL-1β-inflamed cremaster): ≤ 10 min; block in TEM ([1]; EC monolayers pre-incubated with peptide then washed, 2 hours, vs Tat-Scr, representative of at least 6 experiments): 50%; reduction of tumor cell TEM ([1]; FIG. 10 experiment, without platelets, 2 hours, vs. scr): 33%; additional TEM in the presence of platelets ([1]; human platelets added to tumor cells, 2 hours): blocked; also recorded: down to the same level; melanoma extravasation events blocked (in vitro) ([1]; in vitro): about ⅓; melanoma extravasation (in words) ([10]; FIG. 12 quantification): blocks melanoma extravasation; reduction of transmigrated tumor cells ([10]; Tat-KLC1c vs scrambled peptide, six hours, lung): 70%; melanoma extravasation events blocked (in vivo) ([10]; in vivo): ⅔
Tat-Scr: negative control peptide contains the same ten amino acids in a random order (scrambled, Scr); SEQ ID NO: 9 (YGRKKRRQRRRGGGGKLNKMVMLR) [reference compound]				no significant differences	not	70	no effect	no effect	no significant differences	30	
